# Reference: patent US9018219B2, “Fused aminodihydropyrimidine derivative” (Shionogi & Co., Ltd., priority 2010, dated 2015)
# pIC50: −log10 of the molar value.
# Experiments:
# CYP2C19 = biological target: T1, CYP2C19 (Homo sapiens, UniProt P33261); assay: CYP inhibition test (CYP2C19); format: in vitro ADME; conditions: pooled human hepatic microsome 0.2 mg protein/mL, 15 minutes, 37° C.; read-out: IC50 CYP2C19 (mephenyloin 4′-hydroxylation)
# T1 construct: enzyme, pooled human hepatic microsome 0.2 mg protein/mL; from tissue
# Excerpt: (§1) Using commercially available pooled human hepatic microsome, and employing, as markers, 7-ethoxyresorufin O-deethylation (CYP1A2), tolbutamide methyl-hydroxylation (CYP2C9), mephenyloin 4′-hydroxylation (CYP2C19), dextromethorphan O-demethylation (CYP2D6), and terfenedine hydroxylation (CYP3A4) as typical substrate metabolism reactions of human main five CYP enzyme forms (CYP1A2, 2C9, 2C19, 2D6, 3A4), an inhibitory degree of each metabolite production amount by a compound of the present invention was assessed. […] After the centrifugation at 3000 rpm for 15 minutes, resorufin (CYP1A2 metabolite) in the supernatant was quantified by a multi-label counter and hydroxytolbutamide (CYP2C9 metabolite), 4′-hydroxymephenyloin (CYP2C19 metabolite), dextrorphan (CYP2D6 metabolite), and terfenadine alcohol metabolite (CYP3A4 metabolite) were quantified by LC/MS/MS. Addition of only DMSO being a solvent dissolving a compound to a reaction system was adopted as a control (100%), remaining activity (%) was calculated and IC50 was calculated by reverse presumption by a logistic model using a concentration and an inhibition rate.
# CYP1A2 = biological target: T2, CYP1A2 (Homo sapiens, UniProt P05177); assay: CYP inhibition test (CYP1A2); format: in vitro ADME; conditions: pooled human hepatic microsome 0.2 mg protein/mL, 15 minutes, 37° C.; read-out: IC50 CYP1A2 (7-ethoxyresorufin O-deethylation)
# T2 construct: enzyme, pooled human hepatic microsome 0.2 mg protein/mL; from tissue
# T2 sequence (P05177 1-516): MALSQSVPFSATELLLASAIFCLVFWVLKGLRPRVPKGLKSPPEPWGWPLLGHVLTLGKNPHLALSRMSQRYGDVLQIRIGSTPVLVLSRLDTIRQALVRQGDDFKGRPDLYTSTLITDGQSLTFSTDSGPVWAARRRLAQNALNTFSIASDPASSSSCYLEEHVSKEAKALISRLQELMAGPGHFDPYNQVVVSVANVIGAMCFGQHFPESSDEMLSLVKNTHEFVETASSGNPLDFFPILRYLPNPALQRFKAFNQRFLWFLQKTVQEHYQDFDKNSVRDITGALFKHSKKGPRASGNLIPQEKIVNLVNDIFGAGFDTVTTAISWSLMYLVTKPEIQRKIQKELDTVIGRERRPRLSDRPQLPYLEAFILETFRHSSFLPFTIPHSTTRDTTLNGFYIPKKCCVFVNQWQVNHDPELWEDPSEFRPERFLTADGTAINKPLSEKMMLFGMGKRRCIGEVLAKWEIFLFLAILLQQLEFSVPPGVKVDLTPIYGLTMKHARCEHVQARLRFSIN
# Excerpt: as §1
# Recombinant human BACE-1 = biological target: T3, Recombinant human BACE-1 (Homo sapiens, UniProt P56817); assay: Assay of BACE1 inhibitory activity; format: biochemical; conditions: Recombinant human BACE1 7.4 nmol/L, substrate peptide 18 nmol/L, pH 5.0, 30° C. for 3 hours; read-out: IC50 (50% inhibitory concentration against the enzymatic activity)
# T3 construct: purchased R&D Systems
# Experimental: 48.5 μL of substrate peptide solution (Biotin-XSEVNLDAEFRHDSGC-Eu: X=ε-amino-n-capronic acid, Eu=Europium cryptate) was added to each well of 96-hole half-area plate (a black plate: Costar), and after addition of 0.5 μl of the compound of the present invention (N,N′-dimethylformamide solution) and 1 μl of Recombinant human BACE-1 (R&D Systems), the reaction mixture was incubated at 30° C. for 3 hours. The substrate peptide was synthesized by reacting Cryptate TBPCOOH mono SMP (CIS bio international) with Biotin-XSEVNLDAEFRHDSGC (Peptide Institute, Inc.). The final concentrations of the substrate peptide and Recombinant human BACE1 were adjusted to 18 nmol/L and 7.4 nmol/L, respectively, and the reaction was performed in sodium acetate buffer (50 mmol/L sodium acetate, pH 5.0, 0.008% Triton X-100). After the incubation for reaction, 50 μl of 8.0 μg/ml Streptavidin-XL665 (CIS bio international) dissolved in phosphate buffer (150 mmol/L K2HPO4—KH2PO4, pH 7.0, 0.008% Triton X-100, 0.8 mol/L KF) was added to each well and left stand at 30° C. for 1 hour. After then, fluorescence intensity was measured (excitation wavelength: 320 nm, measuring wavelength: 620 nm and 665 nm) using Wallac 1420 multilabel counter (Perkin Elmer life sciences). Enzymatic activity was determined from counting ratio of each wavelength (10,000×Count 665/Count 620) and 50% inhibitory concentration against the enzymatic activity (IC50) was calculated.
# T3 sequence (P56817 46-501): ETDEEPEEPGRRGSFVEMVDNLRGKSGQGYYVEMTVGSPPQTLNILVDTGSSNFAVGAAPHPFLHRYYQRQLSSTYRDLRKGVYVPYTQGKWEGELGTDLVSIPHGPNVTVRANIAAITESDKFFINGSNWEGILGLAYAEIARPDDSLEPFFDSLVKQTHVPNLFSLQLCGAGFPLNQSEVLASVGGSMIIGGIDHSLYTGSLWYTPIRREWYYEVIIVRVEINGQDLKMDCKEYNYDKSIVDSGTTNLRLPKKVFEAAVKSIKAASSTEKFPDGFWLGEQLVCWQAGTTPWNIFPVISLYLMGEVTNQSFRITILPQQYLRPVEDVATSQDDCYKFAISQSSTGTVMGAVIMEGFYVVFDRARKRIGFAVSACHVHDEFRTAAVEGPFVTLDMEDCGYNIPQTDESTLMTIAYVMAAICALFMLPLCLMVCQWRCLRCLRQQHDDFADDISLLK
# T1 sequence (P33261 whole entry): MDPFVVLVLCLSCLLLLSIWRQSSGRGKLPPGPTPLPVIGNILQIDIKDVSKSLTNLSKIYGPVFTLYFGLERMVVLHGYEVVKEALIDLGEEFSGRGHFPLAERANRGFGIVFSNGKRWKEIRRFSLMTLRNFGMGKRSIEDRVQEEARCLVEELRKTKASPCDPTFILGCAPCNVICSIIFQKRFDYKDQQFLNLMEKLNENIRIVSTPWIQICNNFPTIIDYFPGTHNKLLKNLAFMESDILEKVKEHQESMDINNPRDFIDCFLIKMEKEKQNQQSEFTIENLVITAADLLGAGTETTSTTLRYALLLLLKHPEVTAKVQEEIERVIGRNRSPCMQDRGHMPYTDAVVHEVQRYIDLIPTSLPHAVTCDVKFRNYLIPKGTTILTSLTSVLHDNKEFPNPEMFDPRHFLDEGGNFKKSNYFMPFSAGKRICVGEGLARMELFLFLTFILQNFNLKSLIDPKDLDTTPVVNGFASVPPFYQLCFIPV
smiles,measurement,setting,value
C[C@@]1(c2cc(-c3cccnc3F)ccc2F)Cc2nccn2C(N)=N1 [Compound I-2],pIC50,CYP2C19,< 4.70
same,pIC50,CYP1A2,< 4.70
same,pIC50,Recombinant human BACE-1,≥ 6.00
